The values below are quoted from earlier work in patent US20130316926A1, “METHOD FOR THE MONITORING OF SMOKING CESSATION COMPLIANCE AND RECOVERY, THERAPEUTIC INTERVENTION, AND RISK MANAGEMENT” (Health Diagnostic Laboratory, Inc., priority 2012, published 2013).

The conditions of series [1]: for t½: b55, cotinine value is an average.
The conditions of series [2]: for urinary concentration: tobacco user, regardless of nicotine replacement therapy.

Where two headings read alike, the source gives them in different places.

In the case of `CN1C(=O)[C@H](O)C[C@H]1c1cccnc1` (relative stereo) [trans-3-hydroxycotinine], in series [1], the half-life (commonly the time in which the quantity being followed falls by half) is 10 h. In series [2], the “Concentration of Urinary: Non-tobacco user with no passive exposure” value was less than 50 ng/mL, the “Concentration of Urinary: Non-tobacco user with Passive exposure” value is less than 50 ng/mL, the “Concentration of Urinary: Tobacco user after 2 weeks' abstinence” value (“Concentration of Urinary: Tobacco user” for short) is recorded as less than 120 ng/mL and the “concentration in urine of tobacco users” value is listed as 3,000-25,000 ng/mL.

`c1cncc([C@@H]2CCCCN2)c1` [Anabasine]: in series [2], the “Concentration of Urinary: Non-tobacco user with no passive exposure” value is recorded as less than 2.0 ng/mL, the “Concentration of Urinary: Non-tobacco user with Passive exposure” value was less than 2.0 ng/mL, the “Concentration of Urinary: Tobacco user” value is listed as less than 2.0 ng/mL and the urinary concentration is listed as greater than 10 ng/mL.

As to `CN1C(=O)CC[C@H]1c1cccnc1` [Cotinine], in series [1], the half-life is 15 h and the t½ (as a rule, the time needed for the level to fall by half in the phase considered) is 16 h. Further, the half-life entry in series [1] (b40, Benowitz 1986) is “about 20 hrs”. Moreover, in series [2], the “Concentration of Urinary: Non-tobacco user with no passive exposure” value is reported as less than 5.0 ng/mL, the “Concentration of Urinary: Non-tobacco user with Passive exposure” value is recorded as less than 20 ng/mL, the “Concentration of Urinary: Tobacco user” value is reported as less than 50 ng/mL and the “concentration in urine of tobacco users” value is listed as 1,000-8,000 ng/mL.

As for `CN1CCCC1c1cccnc1` (centres unmarked) [Nicotine], in series [1], the half-life was 2 h and the t½ is 2 h. In addition, the “time to reach the central nervous system” value in series [1] (after tobacco smoke inhalation) was no more than 20 s. Moreover, the “fraction of circulating nicotine metabolized to cotinine” value in series [1] (by cytochrome P450 and aldehyde oxidase) is 70%. Besides, in series [1] (in vivo), the distribution half-life is recorded as 8 min and the elimination half-life is 2 h. Also, in series [1] (on average), the “nicotine leaving the liver in metabolite forms” value is 70%; the “nicotine that enters the liver and exits unchanged” value is given as 30%. In series [2], the “Concentration of Urinary: Non-tobacco user with no passive exposure” value was less than 2.0 ng/mL, the “Concentration of Urinary: Non-tobacco user with Passive exposure” value was less than 20 ng/mL, the “Concentration of Urinary: Tobacco user” value is on record as less than 30 ng/mL and the “concentration in urine of tobacco users” value is 1,000-5,000 ng/mL.

On to `c1cncc([C@@H]2CCCN2)c1` [Nornicotine], for which, in series [2], the “Concentration of Urinary: Non-tobacco user with no passive exposure” value is less than 2.0 ng/mL, the “Concentration of Urinary: Non-tobacco user with Passive exposure” value is listed as less than 2.0 ng/mL, the “Concentration of Urinary: Tobacco user” value was less than 2.0 ng/mL and the urinary concentration is on record as greater than 30 ng/mL.
